Measured values: patent US4746675A, “External pharmaceutical composition” (Teijin Limited, priority 1983, dated 1988)
Like-named read-outs stand apart in the source and are kept apart here. Values belong to the compound of their own block, whether it stands above or below them.

Assays:
[1] = diffusion of drug through egg shell membrane in diffusion cell; format: in vitro ADME
Procedure: A diffusion cell was partitioned by an egg shell membrane. […] While maintaining a temperature of 37° C., the two liquid phases were stirred, and after a lapse of a predetermined period of time, the amount of the drug which diffused into the acceptor side from the donor side was measured.
The diffusion cell used was a glass cell for use in an ordinary diffusion experiment. The egg shell was obtained by removing the contents of an egg from the shell, immersing the shell in 0.7% acetic acid for 30 minutes, subjecting it to ultrasonication for 15 minutes, and carefully peeling the membrane from the shell.
A control test was carried out in the same way as above except that only the drug was added to the donor side.
The amount of the drug which diffused to the acceptor side was measured 30 minutes later, and compared with the control.
The relative amount of the drug diffused from the drug-penetration enhancer system was calculated by taking the amount of the drug diffused from the control donor side as 100. […] Bull., Vol. 20, p.

[2] = test system: eye (cornea, iris, conjunctiva); assay: primary eye irritation (Draize) in rabbits; format: in vivo, white native male rabbits; conditions: average of three rabbits
Procedure: enhancers of this invention shown in Table 17 was applied dropwise to one eye of white native male rabbits (body weight 2.0 to 3.0 kg; 3 per group) which, it had been ascertained, were free from any trouble at the cornea, iris and conjunctiva. Nothing was applied to the other eye. Thus, irritation of the absorption aid to the mucous membrane of the eyes were examined, and scores were calculated in accordance with the Draize's eye irritation evaluating method [Association of Foods, "Drugs and Cosmetics" (1957)].
As a control, sodium laurylsulfate, a kind of surface-active agent, was evaluated in the same way, and the results are also shown in Table 17.

carrageenan edema = carrageenan edema inhibiting effect of betamethasone valerate ointments; format: in vivo, rat; conditions: Table 5, betamethasone valerate ointment with penetration enhancer
Procedure: An ointment was prepared from 0.15 part by weight of betamethasone valerate, 9.85 parts by weight of compound (168) and 90 parts by weight of the hydrophilic ointment.
In accordance with the method of R. Passarella et al. [Argneim. Forsch 30, (I), Nr. 4, 647-651 (1980)], the carrageenan edema inhibiting effect of the above ointment was examined. Specifically, 0.1 ml of a 1% carrageenan suspension in 0.9% NaCl solution was injected into the tip of the right leg of a rat (body weight 150-175 g). The foot volume was measured immediately after administration of carrageenan and 3, 5, and 6 hours after the administration by means of a mercury displacement device. 0.5, 1 and 2 hours after the administration of carrageenan, 100 mg of the ointment was well […] into each of the sites which underwent inflammation.
Various ointments were prepared from 0.15 part by weight of betamethasone valerate, […] of the various penetration enhancers shown in Table 5, and 85 parts by weight of the hydrophilic ointment, and tested in the same way as in Example 23.

[3] = 30 minutes, drug 0.05% with compound (168) 1.0% on donor side, drug alone = 100, 37° C.

- Relative amount of the drug diffused [1]: 177
Compound: CN1C(C(=O)Nc2ccccn2)=C(O)c2ccccc2S1(=O)=O [Piroxicam]

- Relative amount of the drug diffused [1]: 141
Compound: Cc1ccc(Cl)c(OCC(O)CNC(C)(C)C)c1 (stereo not drawn) [Bupranolol]

- Relative amount of the drug diffused [1]: 122
Compound: Nc1ccc(C(=O)O)cc1 [p-Aminobenzoic acid]

- Relative amount of the drug diffused [1]: 181
Compound: C[C@]12CC[C@@H]3c4ccc(O)cc4CC[C@H]3[C@@H]1CC[C@@H]2O [Estradiol]

- Relative amount of the drug diffused [1]: 209
Compound: COC1=CC(=O)C[C@@H](C)[C@]12Oc1c(Cl)c(OC)cc(OC)c1C2=O [Griseofulvin]

The remaining lines, values behind:

Compound: CCCCCCCCC1(CCCCCCCC)OCC(COC(=O)C2CCC(=O)N2)O1 (stereo not drawn) [Compound (214), 2,3-dioxo-(dioctyl)methylene-1-pyroglutamyloxypropane]
- Primary irritation score, Conjunctiva ([2]; 2.4% soln, 1 hour): 2.0
- Primary irritation score, Cornea ([2]; 2.4% soln, 1 hour): 0
- Primary irritation score, Iris ([2]; 2.4% soln, 1 hour): 0
- Primary irritation score, Total ([2]; 2.4% soln, 1 hour): 2.0
- Primary irritation score, Conjunctiva ([2]; 2.4% soln, 3 hours): 2.0
- Primary irritation score, Cornea ([2]; 2.4% soln, 3 hours): 0
- Primary irritation score, Iris ([2]; 2.4% soln, 3 hours): 0
- Primary irritation score, Total ([2]; 2.4% soln, 3 hours): 2.0
- Primary irritation score, Conjunctiva ([2]; 2.4% soln, 6 hours): 2.0
- Primary irritation score, Cornea ([2]; 2.4% soln, 6 hours): 0
- Primary irritation score, Iris ([2]; 2.4% soln, 6 hours): 0
- Primary irritation score, Total ([2]; 2.4% soln, 6 hours): 2.0
- Primary irritation score, Conjunctiva ([2]; 2.4% soln, 24 hours): 0
- Primary irritation score, Cornea ([2]; 2.4% soln, 24 hours): 0
- Primary irritation score, Iris ([2]; 2.4% soln, 24 hours): 0
- Primary irritation score, Total ([2]; 2.4% soln, 24 hours): 0
- Primary irritation score, Conjunctiva ([2]; 2.4% soln, 48 hours): 0
- Primary irritation score, Cornea ([2]; 2.4% soln, 48 hours): 0
- Primary irritation score, Iris ([2]; 2.4% soln, 48 hours): 0
- Primary irritation score, Total ([2]; 2.4% soln, 48 hours): 0
- Primary irritation score, Conjunctiva ([2]; 2.4% soln, 72 hours): 0
- Primary irritation score, Cornea ([2]; 2.4% soln, 72 hours): 0
- Primary irritation score, Iris ([2]; 2.4% soln, 72 hours): 0
- Primary irritation score, Total ([2]; 2.4% soln, 72 hours): 0
- Primary irritation score, Conjunctiva ([2]; 2.4% soln, 96 hours): 0
- Primary irritation score, Cornea ([2]; 2.4% soln, 96 hours): 0
- Primary irritation score, Iris ([2]; 2.4% soln, 96 hours): 0
- Primary irritation score, Total ([2]; 2.4% soln, 96 hours): 0
- Primary irritation score, Conjunctiva ([2]; 2.4% soln, 168 hours): 0
- Primary irritation score, Cornea ([2]; 2.4% soln, 168 hours): 0
- Primary irritation score, Iris ([2]; 2.4% soln, 168 hours): 0
- Primary irritation score, Total ([2]; 2.4% soln, 168 hours): 0
- Percentage inhibition vs. control (carrageenan edema; 3 hrs): 18.2%
- Percentage inhibition vs. control (carrageenan edema; 5 hrs): 35.3%
- Percentage inhibition vs. control (carrageenan edema; 6 hrs): 35.5%

Compound: O=C(O)c1ccccc1O [Salicylic acid]
- Relative amount of the drug diffused [1, 3]: 203

Compound: CCCCCCCCCCCCOCC(O)COC(=O)[C@@H]1CCC(=O)N1 (stereo partly drawn) [Compound (108), 3-dodecyloxy-2-hydroxy-1-pyroglutamyloxypropane]
- Primary irritation score, Conjunctiva ([2]; 0.8% soln, 1 hour): 2.0
- Primary irritation score, Cornea ([2]; 0.8% soln, 1 hour): 0
- Primary irritation score, Iris ([2]; 0.8% soln, 1 hour): 0
- Primary irritation score, Total ([2]; 0.8% soln, 1 hour): 2.0
- Primary irritation score, Conjunctiva ([2]; 0.8% soln, 3 hours): 2.0
- Primary irritation score, Cornea ([2]; 0.8% soln, 3 hours): 0
- Primary irritation score, Iris ([2]; 0.8% soln, 3 hours): 0
- Primary irritation score, Total ([2]; 0.8% soln, 3 hours): 2.0
- Primary irritation score, Conjunctiva ([2]; 0.8% soln, 6 hours): 1.3
- Primary irritation score, Cornea ([2]; 0.8% soln, 6 hours): 0
- Primary irritation score, Iris ([2]; 0.8% soln, 6 hours): 0
- Primary irritation score, Total ([2]; 0.8% soln, 6 hours): 1.3
- Primary irritation score, Conjunctiva ([2]; 0.8% soln, 24 hours): 0
- Primary irritation score, Cornea ([2]; 0.8% soln, 24 hours): 0
- Primary irritation score, Iris ([2]; 0.8% soln, 24 hours): 0
- Primary irritation score, Total ([2]; 0.8% soln, 24 hours): 0
- Primary irritation score, Conjunctiva ([2]; 0.8% soln, 48 hours): 0
- Primary irritation score, Cornea ([2]; 0.8% soln, 48 hours): 0
- Primary irritation score, Iris ([2]; 0.8% soln, 48 hours): 0
- Primary irritation score, Total ([2]; 0.8% soln, 48 hours): 0
- Primary irritation score, Conjunctiva ([2]; 0.8% soln, 72 hours): 0
- Primary irritation score, Cornea ([2]; 0.8% soln, 72 hours): 0
- Primary irritation score, Iris ([2]; 0.8% soln, 72 hours): 0
- Primary irritation score, Total ([2]; 0.8% soln, 72 hours): 0
- Primary irritation score, Conjunctiva ([2]; 0.8% soln, 96 hours): 0
- Primary irritation score, Cornea ([2]; 0.8% soln, 96 hours): 0
- Primary irritation score, Iris ([2]; 0.8% soln, 96 hours): 0
- Primary irritation score, Total ([2]; 0.8% soln, 96 hours): 0
- Primary irritation score, Conjunctiva ([2]; 0.8% soln, 168 hours): 0
- Primary irritation score, Cornea ([2]; 0.8% soln, 168 hours): 0
- Primary irritation score, Iris ([2]; 0.8% soln, 168 hours): 0
- Primary irritation score, Total ([2]; 0.8% soln, 168 hours): 0
- Percentage inhibition vs. control (carrageenan edema; 3 hrs): 20.1%
- Percentage inhibition vs. control (carrageenan edema; 5 hrs): 36.7%
- Percentage inhibition vs. control (carrageenan edema; 6 hrs): 36.7%

Compound: CN1[C@@H]2C[C@@H](OC(=O)[C@H](CO)c3ccccc3)C[C@H]1[C@@H]1O[C@@H]12 [Scopolamine]
- Relative amount of the drug diffused [1, 3]: 116

Compound: iso-Sorbitol nitrate
- Relative amount of the drug diffused [1, 3]: 128
